≈ marks a conversion by molar mass, not a printed value.
Assay: Solubility screen of 5-MeO-DMT in solvents at room temperature and reflux
Conditions: for solubility: thermodynamic from solid
Procedure: A solubility screen of 5-MeO-DMT was performed on a number of solvents at both room temperature and reflux.

COc1ccc2[nH]cc(CCN(C)C)c2c1 [5-MeO-DMT, 5-Methoxy-N,N-dimethyltryptamine]
solubility (2-methyltetrahydrofuran, organic solvent or mixture, 5-MeO-DMT Solubility Ambient, solvent 2-Methyltetrahydrofuran (2-MeTHF), ambient (room temperature)): 250 mg/mL (≈ 1150 mM)
solubility (acetone, organic solvent or mixture, 5-MeO-DMT Solubility Ambient, solvent Acetone, ambient (room temperature)): 530 mg/mL (≈ 2430 mM)
solubility (ethanol, organic solvent or mixture, 5-MeO-DMT Solubility Ambient, solvent Ethanol, ambient (room temperature)): 340 mg/mL (≈ 1560 mM)
solubility (ethyl acetate, organic solvent or mixture, 5-MeO-DMT Solubility Ambient, solvent Ethyl Acetate, ambient (room temperature)): 260 mg/mL (≈ 1190 mM)
solubility (heptanes, organic solvent or mixture, 5-MeO-DMT Solubility Ambient, solvent Heptanes, ambient (room temperature)): < 50 mg/mL
solubility (heptanes, organic solvent or mixture, 5-MeO-DMT Solubility Reflux, solvent Heptanes, reflux): < 50 mg/mL
solubility (in words) (in MTBE at room temperature): not observed to be soluble
solubility (in words) (in MTBE when the temperature of the solvent was increased): very soluble
solubility (in words) (in heptanes): Poor solubility
solubility (in words) (in water): Poor solubility
solubility (isopropanol, organic solvent or mixture, 5-MeO-DMT Solubility Ambient, solvent Isopropanol (IPA), ambient (room temperature)): 180 mg/mL (≈ 825 mM)
solubility (isopropyl acetate, organic solvent or mixture, 5-MeO-DMT Solubility Ambient, solvent Isopropyl acetate (IPAc), ambient (room temperature)): 210 mg/mL (≈ 962 mM)
solubility (methyl tert-butyl ether, organic solvent or mixture, 5-MeO-DMT Solubility Ambient, solvent Methyl tert-butyl ether (MTBE), ambient (room temperature)): < 50 mg/mL
solubility (methyl tert-butyl ether, organic solvent or mixture, 5-MeO-DMT Solubility Reflux, solvent Methyl tert-butyl ether (MTBE), reflux): 420 mg/mL (≈ 1920 mM)
5-MeO-DMT Solubility Ambient (vols.) (solvent 2-Methyltetrahydrofuran (2-MeTHF), ambient (room temperature)): 4.0 vols.
5-MeO-DMT Solubility Ambient (vols.) (solvent Acetone, ambient (room temperature), volumes of solvent for complete dissolution of 200 mg): 1.9 vols.
5-MeO-DMT Solubility Ambient (vols.) (solvent Ethanol, ambient (room temperature)): 2.9 vols.
5-MeO-DMT Solubility Ambient (vols.) (solvent Ethyl Acetate, ambient (room temperature)): 3.9 vols.
5-MeO-DMT Solubility Ambient (vols.) (solvent Heptanes, ambient (room temperature)): >20 vols.
5-MeO-DMT Solubility Reflux (vols.) (solvent Heptanes, reflux): >20 vols.
5-MeO-DMT Solubility Ambient (vols.) (solvent Isopropanol (IPA), ambient (room temperature)): 5.6 vols.
5-MeO-DMT Solubility Ambient (vols.) (solvent Isopropyl acetate (IPAc), ambient (room temperature)): 4.8 vols.
5-MeO-DMT Solubility Ambient (vols.) (solvent Methyl tert-butyl ether (MTBE), ambient (room temperature)): >20 vols.
5-MeO-DMT Solubility Reflux (vols.) (solvent Methyl tert-butyl ether (MTBE), reflux): 2.4 vols.
5-MeO-DMT Solubility Ambient (vols.) (solvent Toluene, ambient (room temperature)): 5.1 vols.
5-MeO-DMT Solubility Ambient (vols.) (solvent Water, ambient (room temperature)): >20 vols.
5-MeO-DMT Solubility Reflux (vols.) (solvent Water, reflux): >20 vols.
solubility (toluene, organic solvent or mixture, 5-MeO-DMT Solubility Ambient, solvent Toluene, ambient (room temperature)): 200 mg/mL (≈ 916 mM)
solubility (water, 100 °C, 5-MeO-DMT Solubility Reflux, solvent Water, reflux): < 50 mg/mL
solubility (water, 5-MeO-DMT Solubility Ambient, solvent Water, ambient (room temperature)): < 50 mg/mL
